# Data reported in patent publication US11434205B2, “Substituted imidazole carboxylate derivatives and the use thereof” (priority 2018, dated 2022).
# Where “and” joins values, the source holds several entries; their conditions need not be identical. Equal entries are not always repeated. Entries after “also recorded” stand apart in the source; their conditions may differ. Where two headings read alike, the source gives them in different places. Marks after values point to notes of the source that are not given here.
# Experiments:
# rats [1] = assay type: in vivo, rat; conditions: rats of the MAP/HR figures, 2×ED50, tail vein
# rats [2] = system: rats
# Method: (§1) Adult male Sprague-Dawley rats (250-300 g) were selected for the experiment. […] The anesthesia effects of the compounds were assessed in rats using a LORR assay and a period >30 s was considered as an indicator of general anesthesia. Then the up and down method was used to determine 50% effective dose (ED50). The drugs were administered through the tail vein of rats in a volume of 0.6 mL and at a rate of 0.1 mL/s.
# rats [3] = experiment: Loss of righting reflexes (LORR) assay in rats, ED50 by up and down method; assay type: in vivo, rat; conditions: tail vein; for ED50: Rattus norvegicus
# Method: The Anesthetic Activity of the Compounds was Assessed in Rats Using a Loss of Righting Reflexes (LORR) Assay
# as §1
# rats [4] = experiment: Pharmacological characteristics at equivalent doses (2×ED50) in rats; conditions: 2×ED50, tail vein; for Adverse reactions: Red urine (incidence): DMSO solution (DMSO alone 10/10); for Onset time: time of LORR
# Method: Comparison of Pharmacological Characteristics of the Compounds at Equivalent Doses (2×ED50) in Rats
# Adult male Sprague-Dawley rats (250-300 g) were selected for the experiment (n=8). […] The drugs were administered at a dose twice their ED50 through the tail vein of rats in a volume of 0.6 mL and at a rate of 0.1 mL/s. In addition, the time of LORR was recorded as the onset time of anesthesia. […] Furthermore, the duration of the pharmacological effects is sufficient to meet the time requirements for rapid induction of general anesthesia and for diagnostic examinations, some short invasive clinical examinations, or operations.
# rats [5] = assay type: in vivo, rat; conditions: for recovery time of the test animals' righting reflex: rats of the MAP/HR figures, 2×ED50, tail vein, same value in min
# Method: The Effects of the Compounds on the Circulatory Function were Measured in Rats Using a Small Animal Implanted Physiological Signal Telemetry System
# The anesthetic activity of the compounds was assessed in rats using a LORR assay and the up and down method was used to determine ED50. […] A small animal implantable physiological signal telemetry system from DSI (Data Science International, Inc.) was used to measure the changes in heart rate (HR) and blood pressure in rats during 30 min after administration. Then mean arterial pressure (MAP) and HR were used as representative indicators to determine hemodynamic stability of the compounds of the present invention in rats.
# A small animal implantable physiological signal telemetry system from DSI (Data Science International, Inc.) including implants (RATHD-521, DSI, United States), receiver boards (RPC-1, DSI, United States), signal conversion devices (DEM, DSI, USA), perfusion glue (DSI, USA), fibrin membrane (DSI, USA), etc.
# First, animal models were established. A left ventricular catheter, an abdominal aortic catheter and ECG wires were placed into rats. At least one week after surgery, data were recorded.
# Administration procedure: rats were put into a restraint device with a 20 G indwelling catheter placed into a lateral tail vein. After administration of 0.2 mL heparin, a pre-filled extension tube was attached and taped to the tail vein to secure the extension tube. Then the rats were removed from the restraint device to a cage before placing them together on the signal receiver. […] Finally, the pharmacological effects, adverse reactions, and behavioural manifestations of the rats were observed and recorded
# Data collection: After setting the data collection parameters on the software, the power of the implant was turned on to start data collection. In this experiment, data recording frequency was set to 15 s. Data collection was continuously recorded for 30 min before and after administration of the drugs in rats. After data acquisition, the test was stopped.
# [6] = system: secretion of corticosterone, H295R cell line; experiment: cells; assay type: cell-based; conditions: for EC50: read-out: EC50 (Corticosterone)
# Method: (§2) The Effects of the Compounds on Adrenocortical Function In Vitro Test
# (§3) Then secretion of the cortisol and corticosterone in the supernatant, was measured using HPLC-MS/MS method to determine whether the compounds of the present invention had adrenotoxic potential.
# [7] = system: secretion of cortisol, H295R cell line; experiment: cells; assay type: cell-based; conditions: for EC50: read-out: EC50 (Cortisol)
# Method: as §2, §3
# rats [8] = system: rats; remark: listed apart in the source
# Method: Pharmacological Effects of the Compounds on Continuous Infusion in Rats
# Adult male Sprague-Dawley rats with body weight ranging from 250 to 300 gm were selected for continuous infusion test. […] Time to recovery of righting reflex from stopping infusion, and time to fully awake from stopping infusion were recorded.
# [9] = emulsion, continuous infusion at 2×MIR
# [10] = H295R cell line, 0.1-10000 nM, HPLC-MS/MS, Table D3
# [11] = continuous tail vein infusion at 2×MIR, LORR maintained 1 hour, Table D4
# [12] = H295R cell line, 0.1-10000 nM, HPLC-MS/MS, Table E3
# [13] = H295R, 0.1-10000 nM, HPLC-MS/MS
# [14] = continuous tail vein infusion at 2×MIR, LORR maintained 1 hour, Table C4
# [15] = continuous tail vein infusion at 2×MIR, LORR maintained 1 hour, Table E4
compound,measurement,setting,value
C[C@H](c1ccccc1)n1cnc(F)c1C(=O)OC1CCC1 [Compound E9],recovery time of the test animals' righting reflex,rats [1],77 s
same,Approximate therapeutic index,rats [2],>48
same,Minimal lethal dose,rats [2],>6 mg/kg
same,ED50 (mg/kg),rats [3]; class symbols,"B (B means that the measured ED50 is in the range of 0.10-0.50 mg/kg (excluding 0.10 mg/kg, including 0.50 mg/kg).)"
same,Righting reflex duration,rats [4],1.24 ± 0.79 min
same,Sedation duration (mg/kg),rats [4],9.29 ± 2.07
same,Adverse reactions: Red urine (incidence),rats [4],(8/8)
same,Onset time,rats [4],0.42 ± 0.20 min
same,recovery time of the test animals' righting reflex,rats [5],1.28 min
CCC(C)(C)OC(=O)c1c(F)ncn1[C@H](C)c1ccccc1 [Compound E28],recovery time of the test animals' righting reflex,rats [1],150 s
same,Approximate therapeutic index,rats [2],>16
same,Minimal lethal dose,rats [2],>6 mg/kg
same,ED50,rats [3]; class symbols,0.1 to 0.5 mg/kg
same,Righting reflex duration,rats [4],2.69 ± 1.07 min
same,Adverse reactions: Red urine (incidence),rats [4],(8/8)
same,Onset time,rats [4],0.43 ± 0.19 min
same,recovery time of the test animals' righting reflex,rats [5],2.5 min
CC#CC(C)(C)OC(=O)c1c(F)ncn1[C@H](C)c1ccccc1 [Compound E17],recovery time of the test animals' righting reflex,rats [1],196 s
same,Approximate therapeutic index,rats [2],>32
same,Minimal lethal dose,rats [2],>9 mg/kg
same,ED50,rats [3]; class symbols,0.1 to 0.5 mg/kg
same,Adverse reactions: Muscle twitching (incidence),rats [4],"(1/8),"
same,Righting reflex duration,rats [4],3.12 ± 1.61 min
same,Adverse reactions: Red urine (incidence),rats [4],(8/8)
same,Onset time,rats [4],0.26 ± 0.07 min
same,recovery time of the test animals' righting reflex,rats [5],3.27 min
C[C@H](c1ccccc1)n1cncc1C(=O)OCC1(C2CO2)CCC1 (stereo partly shown) [Compound A21],Corticosterone as an indicator to determine the presence of inhibition,"[6]; H295R, Table A3",0
same,EC50,"[6]; Homo sapiens, NCI-H295R",> 1000 nM
same,Cortisol as an indicator to determine the presence of inhibition,"[7]; H295R, Table A3",0
same,EC50,"[7]; Homo sapiens, NCI-H295R",> 1000 nM
same,Approximate therapeutic index,rats [2],>16
same,Minimal lethal dose,rats [2],>5 mg/kg
same,ED50,rats [3]; class symbols,0.1 to 0.5 mg/kg
same,Righting reflex duration,rats [4],1.75 ± 0.26 min
same,Adverse reactions: Red urine (incidence),rats [4],Red urine (8/8)
same,Onset time,rats [4],0.27 ± 0.19 min
same,Recovery time after stopping infusion,rats [8]; after 1 hour infusion at 2×MIR,15 to 25 min
same,Types and incidence of adverse reactions,"rats [8]; continuous infusion 2×MIR, in words",No
same,Onset time,rats [8]; [9],3 to 4 min
C=C=CC1(OC(=O)c2cncn2[C@H](C)c2ccccc2)CSC1 [Compound D28],Corticosterone as an indicator to determine the presence of inhibition,[6]; [10],0
same,EC50,"[6]; Homo sapiens, NCI-H295R",> 10000 nM
same,Cortisol as an indicator to determine the presence of inhibition,[7]; [10],0
same,EC50,"[7]; Homo sapiens, NCI-H295R",> 10000 nM
same,Approximate therapeutic index,rats [2],>16
same,Minimal lethal dose,rats [2],>10 mg/kg
same,ED50,rats [3]; class symbols,0.01 to 0.1 mg/kg
same,Righting reflex duration,rats [4],5.09 ± 1.89 min
same,Adverse reactions: Red urine (incidence),rats [4],Red urine (8/8)
same,Onset time,rats [4],0.25 ± 0.06 min
same,Onset time,rats [8]; [11],3 to 4 min
same,Recovery time after stopping infusion,rats [8]; [11],13 to 16 min
same,Types and incidence of adverse reactions,rats [8]; [11],Tremor (2/6)
C[C@H](c1ccccc1)n1cncc1C(=O)OC1(C2CO2)CCC1 (stereo partly shown) [Compound A20],Corticosterone as an indicator to determine the presence of inhibition,"[6]; H295R, Table A3",0
same,EC50,"[6]; Homo sapiens, NCI-H295R",> 10000 nM
same,Cortisol as an indicator to determine the presence of inhibition,"[7]; H295R, Table A3",0
same,EC50,"[7]; Homo sapiens, NCI-H295R",> 10000 nM
same,Approximate therapeutic index,rats [2],>22
same,Minimal lethal dose,rats [2],>3 mg/kg
same,ED50,rats [3]; class symbols,0.01 to 0.1 mg/kg
same,Righting reflex duration,rats [4],1.90 ± 0.74 min
same,Adverse reactions: Red urine (incidence),rats [4],Red urine (8/8)
same,Onset time,rats [4],0.11 ± 0.03 min
C[C@H](c1ccccc1)n1cncc1C(=O)OCC1(C(F)F)CCC1 [Compound A19],Corticosterone as an indicator to determine the presence of inhibition,"[6]; H295R, Table A3",0
same,EC50,"[6]; Homo sapiens, NCI-H295R",> 10000 nM
same,Cortisol as an indicator to determine the presence of inhibition,"[7]; H295R, Table A3",0
same,EC50,"[7]; Homo sapiens, NCI-H295R",> 10000 nM
same,Approximate therapeutic index,rats [2],>10
same,Minimal lethal dose,rats [2],>5 mg/kg
same,ED50,rats [3]; class symbols,0.1 to 0.5 mg/kg
same,Righting reflex duration,rats [4],6.13 ± 2.87 min
same,Adverse reactions: Red urine (incidence),rats [4],Red urine (8/8)
same,Onset time,rats [4],0.36 ± 0.16 min
"COC(=O)C1(OC(=O)c2cncn2[C@H](C)c2ccccc2)CC1 [CPMM, cyclopropyl methoxycarbonyl methylate, reference compound]",Corticosterone as an indicator to determine the presence of inhibition,[6]; [10],1
same,EC50,[6]; [10],> 100 nM
same,Corticosterone as an indicator to determine the presence of inhibition,[6]; [12],1
same,EC50,[6]; [12],> 100 nM
same,EC50,[6]; [13],> 100 nM
same,Corticosterone as an indicator to determine the presence of inhibition,"[6]; H295R, Table A3",1
same,Corticosterone as an indicator to determine the presence of inhibition,"[6]; H295R, Table B3",1
same,Corticosterone as an indicator to determine the presence of inhibition,"[6]; H295R, Table C3",1
same,Cortisol as an indicator to determine the presence of inhibition,[7]; [10],1
same,EC50,[7]; [10],> 10 nM
same,Cortisol as an indicator to determine the presence of inhibition,[7]; [12],1
same,EC50,[7]; [12],> 10 nM
same,EC50,[7]; [13],> 10 nM
same,Cortisol as an indicator to determine the presence of inhibition,"[7]; H295R, Table A3",1
same,Cortisol as an indicator to determine the presence of inhibition,"[7]; H295R, Table B3",1
same,Cortisol as an indicator to determine the presence of inhibition,"[7]; H295R, Table C3",1
same,Approximate therapeutic index,rats [2],>10
same,Minimal lethal dose,rats [2],>7.8 mg/kg
same,ED50 (mg/kg),rats [3]; brackets = 95% confidence limit,0.78 (0.74-0.82)* mg/kg
same,Adverse reactions: Convulsions (incidence),rats [4],"Convulsions (4/10), Tremor and 4/10 and Convulsions (4/10), and (4/10),"
same,Adverse reactions: Myoclonus (incidence),rats [4],"(5/10), Myoclonus (5/10); also recorded: Myoclonus (5/10)"
same,Righting reflex duration,rats [4],1.62 ± 0.63 min
same,Adverse reactions: Tremor (incidence),rats [4]; animals affected/animals,"(5/10), Myoclonus (5/10) and 5/10 and Tremor (5/10), and (5/10),"
same,Onset time,rats [4],0.26 ± 0.08 min
same,Recovery time after stopping infusion,rats [8]; after 1 hour infusion at 2×MIR,7 to 8 min
same,Adverse reactions: Convulsions (incidence),rats [8]; continuous infusion 2×MIR,3/6
same,Adverse reactions: Myoclonus (incidence),rats [8]; continuous infusion 2×MIR,Myoclonus (5/6)
same,Adverse reactions: Tremor (incidence),rats [8]; continuous infusion 2×MIR,5/6
same,Onset time,rats [8]; [14],3 to 4 min
same,Recovery time after stopping infusion,rats [8]; [14],7 to 8 min
same,Onset time,rats [8]; [11],3 to 4 min
same,Recovery time after stopping infusion,rats [8]; [11],7 to 8 min
same,Onset time,rats [8]; [15],3 to 4 min
same,Recovery time after stopping infusion,rats [8]; [15],7 to 8 min
same,Onset time,rats [8]; [9],3 to 4 min
same,"effect on the circulatory function (MAP, HR)","rats [5]; rats, 2×ED50, 30 min after administration",almost no inhibitory effect on the circulatory function
CCC(=O)C1(OC(=O)c2cncn2[C@H](C)c2ccccc2)CC1 [Compound C16],Corticosterone as an indicator to determine the presence of inhibition,"[6]; H295R, Table C3",0
same,EC50,"[6]; Homo sapiens, NCI-H295R",> 1000 nM
same,Cortisol as an indicator to determine the presence of inhibition,"[7]; H295R, Table C3",0
same,EC50,"[7]; Homo sapiens, NCI-H295R",> 1000 nM
same,Approximate therapeutic index,rats [2],>14
same,Minimal lethal dose,rats [2],>10 mg/kg
same,ED50,rats [3]; class symbols,0.5 to 1 mg/kg
same,Righting reflex duration,rats [4],1.31 ± 0.95 min
same,Adverse reactions: Red urine (incidence),rats [4],Red urine (8/8)
same,Onset time,rats [4],0.73 ± 0.23 min
